The values below come from patent US10072044B2, “Modified kisspeptin peptides and uses thereof” (Yeda Research and Development Co. Ltd., priority 2012, dated 2018).

“Also recorded” adds a separate entry of the source. Bridge positions count the residues as written; N and C are the ends. Ends that are not written are not given here. Where only a bound is given, the exact number is not on record here.

Data set [1] relates to mice. The data set is described as follows: Catalepsy (bar test). The format is in vivo, mouse. As to the method: Catalepsy is a state of immobility, and was measured by means of the bar test. The forepaws of the animal were placed on a bar (0.75 cm in diameter and 5 cm above the floor) and the latency until the mouse moved the forepaws off the bar was measured.
The test system of data set [2] is mice. The data set is described as follows: Open-field test (spontaneous activity). The format is in vivo, mouse. The text has this: The open-field apparatus consisted of a white Plexiglas box (40×40×30 cm) with 16 squares (10×10 cm) painted on the floor (12 outer and 4 inner). Each mouse was placed in the center of the apparatus to initiate a 15-min test session. The number of entrances to the inner squares, time (min) spent in the inner squares, and total distance moved within the field (cm) were monitored.

The subject of data set [3] is mice. Nature of the data set: Rotarod (forced activity). The format is in vivo, mouse. Here is the method:
Forced activity (Rotarod) was analyzed using the Rotarod apparatus (Jones and Roberts 7650, Ugo Basile, Italy). Animals were placed on an accelerating rod, and time required for each mouse to fall from the rod was recorded. Out of three trails, the longest time taken for an animal to fall from the rod was recorded and used for analysis.

Data set [4] concerns MK-801 treated C57BL/6J mice. Nature of the data set: PPI in the MK-801 drug-induced model of schizophrenia. Type of data set: in vivo, mouse. Here is the method:
MK-801 (Sigma) was used at 0.1 mg/kg and administered 15 min prior to the PPI analysis.
(§1) Acoustic startle response testing was performed within startle chambers purchased from Med Associates, Inc. (Med Associates, St. Albans, Vt., USA), as described in Cardon et al., 2010. During a period of acclimation, a 65-decibel (dB) background noise was presented for 5-min, and continued throughout the test session. All sessions for testing of acoustic startle response consisted of startle trials (pulse alone, 40-milliseconds (ms), 120-dB), prepulse trials (prepulse 20-ms, 69, 73, 78, or 81 dB followed by a [100-ms delay] pulse), and no-stimulus trials. All sessions were presented in pseudo-random order. The average time between trials was 15 seconds (range 12-30 seconds). Startle response was calculated from the reaction to the first pulse-alone trial.
(§2) PPI was calculated as: % PPI=100−{[(startle response for prepulse+pulse)/(startle response for pulse-alone)]×100}. Reduced PPI indicates schizophrenia-related behavior.
MK-801 (an antagonist of the N-methyl-D-aspartate (NMDA) receptor channel) acts as a psychomimetic agent, inducing psychotic symptoms that mimic the cognitive impairment and behavioral abnormalities associated with schizophrenia.
The neurotransmitter imbalance induced by MK-801 causes PPI dysfunction, one of the characteristic features of patients with schizophrenia. In an experiment depicted in FIG. 2, C57BL/6J mice were injected with Kp-10 (13 μg/mouse, light gray bars), or with Peptides 6 (8.75 μg/mouse, medium gray bars) or 8 (8.75 μg/mouse, dark gray bars) dissolved in DMSO and then diluted in PBS to a final concentration of 0.2% (w/v) DMSO; the control group received 0.2% DMSO in PBS (black bars). After 15 min, MK-801 (0.1 mg/kg) was injected; 15 min later, measurement of the PPI was performed.

Data set [5] deals with mice. Nature of the data set: Sedative effect (sedative score). The conditions noted are these: data not shown. As to the method:
Sedative effect was evaluated by observing the mice and scoring their sedative state as follows: 0, spontaneous movement; 1, mild intermittent spontaneous movement; 2, severe intermittent spontaneous movement; 3, no spontaneous movement; 4, loss of auditory reflex; 5, loss of corneal reflex; 6, loss of response to tail pinch.
Sedative effect was evaluated by observing the animal using a sedative score.

A short description of data set [6]: Plasma stability (HPLC, Cerep). The format is in vitro ADME. The note with it: 1 μM in human plasma. Here is the method: 1 μM Peptide 6 was dissolved in human plasma, and peptide concentration was analyzed by HPLC after 0, 0.5, 1, 1.5, 2 h of incubation. The assay was performed by Cerep, Inc (Redmond, Wash., U.S.A).
For the next data set, the system named is C57Bl/6J naïve mice. Nature of the data set: Acoustic startle response / prepulse inhibition (PPI) in naïve mice. The format is in vivo, mouse. The conditions noted are these: 30 min before test, prepulse 69, 73, 78 or 81 dB. As to the method: as §1, §2
To test Peptide 2 (SEQ ID NO: 10), the peptide was dissolved in DMSO and then diluted in PBS to a final concentration of 1% (w/v) DMSO. Male C57Bl/6J naïve mice were injected intraperitoneally with 15 μg of the peptide or with 1% DMSO in PBS (control). Prepulse intensity analysis was performed after 30 minutes at 69, 73, 78 or 81 decibels. […]

Data set [7] has as its system SCID mice that have impaired PPI response and several schizophrenia mouse models. The note with it: Kp-10 administration, WO 2010/137022; cited from earlier work.
In another data set the test system is several mouse models. The conditions noted are these: Kp-10, WO 2010/137022; cited from earlier work.
The conditions of data set [8]: Kp-10, after 60 min (Chan et al., 2011); cited from earlier work.
Another data set has as its system naïve mice. The note with it: Kp-10, WO 2010/137022 (FIG. 10C); dose equivalent to 0.29 mg/kg Peptide 6; cited from earlier work.
For another data set, the system named is BDNF mRNA. The conditions noted are these: hippocampal slices (Arai et al., 2009); cited from earlier work.
[9] abbreviates: 13 μg/mouse, MK-801 0.1 mg/kg after 15 min, PPI 15 min later.

For `O=C(CCCN1CCC(O)(c2ccc(Cl)cc2)CC1)c1ccc(F)cc1` [Haloperidol], the catalepsy effect result in the data set on mice [1] (1 mg/kg i.p.) is “had catalepsy effects”. The “spontaneous activity in the open field” value with mice [2] (1 mg/kg i.p.) is reported as “reduced mice activity”. Further, in the data set on mice [3] (1 mg/kg i.p.), the “forced activity in the Rotarod” value was “reduced mice activity”.
For `C[C@]12N[C@H](Cc3ccccc31)c1ccccc12` [MK-801], in data set [4] (MK-801 alone 0.1 mg/kg, 15 min before PPI), the “PPI response compared to PBS injected control” value is “the PPI response was reduced compared to the PBS injected control”.
In the case of `Cc1cc2c(s1)Nc1ccccc1N=C2N1CCN(C)CC1` [Olanzapine], the “highest dose that can be injected without causing sedative effects (chosen dose)” value in the data set with mice [5] stood at 0.375 mg/kg.
As a reminder, the half-life is the time needed for the level to fall by half in the phase considered. In the case of `CC(C)C[C@@H]1NC(=O)CNC(=O)[C@H](Cc2ccccc2)NC(=O)[C@@H](N)Cc2ccc(cc2)N=Nc2cc(ccc2O)C[C@@H](C(N)=O)NC(=O)[C@H](Cc2c[nH]c3ccccc23)NC(=O)[C@H](CCCNC(=N)N)NC1=O` [Peptide 6, Pap-Phe-Gly-Leu-Arg-Trp-Tyr-NH2], the “% Mean Compound Remaining” value in [6] (incubation time 0 minutes) turned out to be 100.0%; in [6] (incubation time 60 minutes) it was 94%. Moreover, the fraction remaining at 0.5 h, 1 μM in data set [6] (incubation time 30 minutes, read-out: % Mean Compound Remaining) stood at 119%. Moreover, the fraction remaining at 1 h, 1 μM in data set [6] (incubation time 60 minutes, read-out: % Mean Compound Remaining) was determined as 93.7%. In data set [6] (incubation time 90 minutes, read-out: % Mean Compound Remaining), the share remaining at 1.5 h, 1 μM worked out at 97.2%. For the same molecule, the fraction remaining at 2 h, 1 μM in data set [6] (incubation time 120 minutes, read-out: % Mean Compound Remaining) turned out to be 71.8%. Moreover, in data set [6] (read-out: calculated half-life), the half-life was over 2 h. For the same molecule, in the data set on mice [1] (0.29 and 2.9 mg/kg i.p.), the catalepsy effect entry is reported as “did not have catalepsy effect at either dosage tested”. Moreover, in the data set on mice [2] (0.29 and 2.9 mg/kg i.p.), the “spontaneous activity in the open field” value is “did not affect activity level”. Further, the “forced activity in the Rotarod” value in the data set on mice [3] (0.29 and 2.9 mg/kg i.p.) is on record as “did not affect activity level”.
In the case of `Cc1nc2n(c(=O)c1CCN1CCC(c3noc4cc(F)ccc34)CC1)CCCC2` [Risperidone], the “highest dose that can be injected without causing sedative effects (chosen dose)” value with mice [5] was 0.1 mg/kg. Also, in data set [4] (0.1 mg/kg i.p. with MK-801 (FIG. 4B)), the “PPI in MK-801 treated mice” value was “elevated PPI in the MK-801 treated mice”.
Consider “Peptide 2: cystine (S—S) cyclic modified Kp-10 derived peptide, used for comparison only (CYNWNSFGLRFC-NH2; disulfide 1-12; N-terminus assumed; SMILES CC(C)C[C@@H]1NC(=O)CNC(=O)[C@H](Cc2ccccc2)NC(=O)[C@H](CO)NC(=O)[C@H](CC(N)=O)NC(=O)[C@H](Cc2c[nH]c3ccccc23)NC(=O)[C@H](CC(N)=O)NC(=O)[C@H](Cc2ccc(O)cc2)NC(=O)[C@@H](N)CSSC[C@@H](C(N)=O)NC(=O)[C@H](Cc2ccccc2)NC(=O)[C@H](CCCNC(=N)N)NC1=O)”, for which, in the data set with C57Bl/6J naïve mice (15 μg peptide i.p. in 1% DMSO in PBS), the “% PPI relative to controls” value is reported as “slightly improved the % PPI relative to controls, however, the effect was not significant; also recorded: did not significantly improve the PPI response”.
For the molecule “Peptide 5: cystine (S—S) cyclic modified Kp-10 derived peptide, used for comparison only (CFGLRWC-NH2; disulfide 1-7; N-terminus assumed; SMILES CC(C)C[C@@H]1NC(=O)CNC(=O)[C@H](Cc2ccccc2)NC(=O)[C@@H](N)CSSC[C@@H](C(N)=O)NC(=O)[C@H](Cc2c[nH]c3ccccc23)NC(=O)[C@H](CCCNC(=N)N)NC1=O)”, in the data set on C57Bl/6J naïve mice (8.3 μg peptide i.p. in 1% DMSO in PBS), the “% PPI relative to controls” value is “slightly improved the % PPI at 73, 78 and 81 decibels relative to controls, however, the effect was not significant; also recorded: did not significantly improve the PPI response”.
With YNWNSFGLRF-NH2 [Kp-10], in [7], the PPI response levels entry is recorded as “improved PPI response levels”. Further, the “spatial learning and memory in a water maze” value in the data set with several mouse models is “improves spatial learning and memory in a water maze”. In addition, the “level after 60 min” value in data set [8] was “below detectable level”. For the same molecule, in the data set on naïve mice, the “antidepressant effect / total immobility in tail suspension test” value is recorded as “antidepressant effect; also recorded: potential anti-depressive activity; also recorded: reduced the total immobility”. In the data set with BDNF mRNA, the “BDNF mRNA levels” value was “elevate BDNF mRNA levels”. Besides, in [4] (setting [9]), the “PPI compared to MK-801 treated animals” value was “significantly improved PPI compared to the MK-801 treated animals; also recorded: significantly improved PPI compared to animals treated only with MK-801” and the “PPI compared to control without MK-801 (restoration to normal)” value was “improved PPI after MK-801 administration but did not abolish its affect”.
